What all share (test): growth of human tumour cells (NCI), 48 h
Test [1] deals with NCI-H226 lung.
The test system of test [2] is OVCAR-5 ovarian.
Test [3] relates to CCRF-CEM leukemia.
For test [4], the system named is SN12C renal.
Test [5] has as its system A549 NSCLC.
The subject of test [6] is COLO 205 colon.
Test [7] has as its system UACC-62 melanoma.
For test [8], the system named is SK-OV-3 ovarian.
Test [9] relates to MDA-MB-435.
Test [10] concerns SNB-19 CNS.

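Five concentrations, 48 hours, 96-well plates. Abbreviation: GI50, concentration required for 50% inhibition of growth. TGI is the concentration that stops growth completely.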

Regarding `C=C(C)[C@@H]1CC[C@]2(C(=O)OC)CC[C@]3(C)[C@H](CC[C@@H]4[C@@](C)(CCc5nn[nH]n5)[C@H](C(=C)C)CC[C@]43C)[C@@H]12`, the GI50 was 15.3 µM in [1]; 19.4 µM in [2]; 6.72 µM in [3]; 14.7 µM in [4]; 12.4 µM in test [5]; 19.7 µM in test [6]. In addition, the GI50 is 5.35 µM in test [7], 25.6 µM in test [8], 17.6 µM in test [9] and 15.4 µM in test [10]. In addition, the TGI was 47.7 µM in test [1]; 35.9 µM in [2]; 37.2 µM in test [3]; 32.8 µM in test [4]; 34.9 µM in [5]; 47.9 µM in test [6]. The TGI is 19.6 µM in test [7], 82.8 µM in test [8], 44.2 µM in test [9] and 35.7 µM in test [10].

On to `OC(c1ccccc1)c1c(-c2ccccc2)[nH]c(-c2ccccc2)c1C(O)c1ccccc1` (stereo not given), for which the TGI in [1] stood at 7.32 µM; in [2], 10.8 µM; in [3], 6.08 µM; in [4], 5.68 µM; in test [5], 18.9 µM; in test [6], 3.15 µM. The TGI in test [7] came to 7.97 µM; in [8], 47.2 µM; in test [9], 7.73 µM; in [10], 23.4 µM.

For the compound `CN1CCN(c2cc(F)c(NC3=C(Cl)C(=O)c4ncccc4C3=O)c(F)c2)CC1`, the GI50 in test [1] was 15.7 µM; in test [2], 1.82 µM; in [4], 1.7 µM; in [5], 4.21 µM; in test [6] it was 2 µM; in [7] it was 1.67 µM. Further, the figures for the GI50 in test [8], in test [9] and in test [10] were 14.7 µM, 1.66 µM and 1.94 µM, respectively. Besides, the TGI turned out to be 39.5 µM in [1]; 3.6 µM in test [2]; 3.29 µM in test [4]; 16.3 µM in [5]; 4.06 µM in test [6]; 3.17 µM in test [7]. The TGI stood at 28.2 µM in [8], 3.2 µM in test [9] and 3.9 µM in test [10].

Regarding `COCCn1c(Nc2ccc(C(=O)NO)cc2)nc2ccccc21`, the GI50 is 13.7 µM in test [1]; 1.69 µM in [2]; 3.52 µM in test [3]; 7.28 µM in test [4]; 4.9 µM in [5]; 2.75 µM in test [6]. In addition, the GI50 in test [7] is 2.06 µM; in test [8] it was 3.45 µM; in test [9] it was 2.89 µM; in test [10], 10.7 µM. Besides, the TGI in [1] is 36.9 µM; in test [2] it was 8.23 µM; in test [3], above 100 µM; in test [4], 47.4 µM; in test [5], 23 µM; in test [6], 7.88 µM. Also, the TGI is 10.5 µM in [7], 20.2 µM in test [8], 11.4 µM in test [9] and 30 µM in test [10].

Regarding `Nc1nc(N)c2cc(S(=O)(=O)c3cccc(C(F)(F)F)c3)ccc2n1`, the GI50 was 21.5 µM in test [1]; 6.46 µM in [2]; 3.41 µM in [3]; 6.34 µM in test [4]; 0.816 µM in test [5]; 3.41 µM in test [7]. Moreover, the GI50 in [8] is 14.8 µM; in test [9], 2.12 µM; in test [10], 5.44 µM. Also, the TGI in test [1], in test [2], in [3], in [4], in [5] and in test [7] was above 100 µM each time. In addition, the TGI in test [8], in [9] and in test [10] was above 100 µM in each case.

As for `CCCCCCCCCCCC(c1ccccc1)[N+](C)(C)C` (stereo not given), the GI50 was 1.97 µM in test [1]; 0.998 µM in [2]; 1.41 µM in test [3]; 1.59 µM in test [4]; 1.46 µM in test [5]; 0.825 µM in [6]. The GI50 in test [8] was 1.86 µM; in test [9] it was 1.35 µM. The TGI in test [1] worked out at 7.22 µM; in [2], 4.97 µM; in test [3] it was 4.12 µM; in test [4], 3.77 µM; in [5], 3.97 µM; in test [6], 2.2 µM. Moreover, the TGI in test [8] was 6.09 µM; in test [9], 3.05 µM.

With `Clc1ccc2c(NC3CCC(NC4CCCCC4)CC3)ccnc2c1` (stereo not given), the GI50 is 12.8 µM in test [1]; 18.5 µM in test [2]; 14.7 µM in test [4]; 4.84 µM in test [5]; 1.65 µM in test [6]; 3.26 µM in [7]. Further, the GI50 in [8] was 15.9 µM; in test [9], 2.11 µM; in test [10] it was 21.3 µM. For the same compound, the TGI in test [1] worked out at 46.5 µM; in test [2] it was 54.4 µM; in [4], 68.3 µM; in [5], 17.3 µM; in test [6], 3.2 µM; in test [7] it was 12.5 µM. Besides, the values for the TGI in test [8], in test [9] and in test [10] were 46.2 µM, 5.51 µM and 89.8 µM, respectively.

Take `c1ccc2[nH]c(-c3ccc(Nc4nc(N5CCCC5)nc5[nH]ncc45)cc3)nc2c1`: the GI50 in test [1] was 1.8 µM; in test [2], 1.23 µM; in [3] it was 0.294 µM; in [4] it was 1.67 µM; in test [5], 0.329 µM; in test [6], 0.217 µM. Besides, the figures for the GI50 in test [8] and in test [9] were 2.55 µM and 1.48 µM, respectively. In addition, the TGI was determined as 4.01 µM in test [1]; 2.87 µM in test [2]; 0.967 µM in [3]; 4.15 µM in [4]; 1.22 µM in [5]; 0.486 µM in [6]. In addition, the figures for the TGI in [8] and in test [9] were 4.87 µM and 3.08 µM, respectively.

Consider `CC(NC(=O)c1ccc(Cl)c(Cl)c1)c1ccc(-c2ccccc2)cc1` (stereo not given), for which the TGI was 78.7 µM in [1]; above 100 µM in test [2]; above 100 µM in test [4]; 45.5 µM in [5]; above 100 µM in test [6]; above 100 µM in test [7]. Besides, the TGI is 90.4 µM in [8], above 100 µM in [9] and 46.7 µM in test [10].

The record behind these values is PubChem BioAssay (NCI).
